One may read the Vmax as the rate approached at saturating substrate.

The text below walks through data of ChEMBL document CHEMBL3526033, “Identification of human liver cytochrome P450 enzymes involved in the metabolism of SCH 530348 (Vorapaxar), a potent oral thrombin protease-activated receptor 1 antagonist” (Drug Metab Dispos, 2011).

What all share (format): ADME
The target of series [1] is T1, Cytochrome P450 1B1 (Homo sapiens, UniProt Q16678). The experiment in a line: Activity of human recombinant CYP1B1 assessed as enzyme-mediated drug metabolism treated with 25 uM vorapaxar after 120 mins by LC-MS/MS analysis in presence of NADPH. The conditions noted are these: 2 h.
T1 sequence (Q16678 whole entry): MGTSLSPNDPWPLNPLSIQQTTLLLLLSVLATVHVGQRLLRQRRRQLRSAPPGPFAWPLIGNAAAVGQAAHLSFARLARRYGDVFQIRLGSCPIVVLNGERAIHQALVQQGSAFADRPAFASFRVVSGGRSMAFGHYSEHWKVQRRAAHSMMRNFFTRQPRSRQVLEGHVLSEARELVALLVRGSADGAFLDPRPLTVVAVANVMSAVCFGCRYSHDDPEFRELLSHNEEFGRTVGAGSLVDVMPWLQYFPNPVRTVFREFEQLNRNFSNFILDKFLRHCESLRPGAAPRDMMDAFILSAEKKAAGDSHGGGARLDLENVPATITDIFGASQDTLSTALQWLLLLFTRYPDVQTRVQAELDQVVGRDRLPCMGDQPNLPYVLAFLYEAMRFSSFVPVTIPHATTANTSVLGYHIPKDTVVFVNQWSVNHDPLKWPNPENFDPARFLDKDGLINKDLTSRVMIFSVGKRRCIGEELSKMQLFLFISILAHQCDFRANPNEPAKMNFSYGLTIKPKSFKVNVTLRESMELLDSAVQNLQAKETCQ
A further series deals with T2, Cytochrome P450 4F3 (Homo sapiens, UniProt Q08477).
T2 sequence (Q08477 whole entry): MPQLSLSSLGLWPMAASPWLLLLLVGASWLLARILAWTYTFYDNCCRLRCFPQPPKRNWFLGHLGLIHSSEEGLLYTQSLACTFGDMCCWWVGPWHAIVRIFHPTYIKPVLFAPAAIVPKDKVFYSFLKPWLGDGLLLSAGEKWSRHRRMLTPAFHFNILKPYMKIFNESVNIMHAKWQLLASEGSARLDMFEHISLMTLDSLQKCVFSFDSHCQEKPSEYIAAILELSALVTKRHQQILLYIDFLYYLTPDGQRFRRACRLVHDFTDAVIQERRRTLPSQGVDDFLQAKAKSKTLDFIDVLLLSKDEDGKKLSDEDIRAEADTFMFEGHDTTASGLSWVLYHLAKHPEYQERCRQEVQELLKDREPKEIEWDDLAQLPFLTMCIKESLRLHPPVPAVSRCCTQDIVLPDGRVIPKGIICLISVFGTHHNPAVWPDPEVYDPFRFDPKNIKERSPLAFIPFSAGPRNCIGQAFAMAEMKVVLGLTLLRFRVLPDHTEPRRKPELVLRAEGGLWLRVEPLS
The series can be described thus: Activity of human recombinant CYP4F3A assessed as enzyme-mediated drug metabolism treated with 25 uM vorapaxar after 120 mins by LC-MS/MS analysis in presence of NADPH. Particulars: 2 h.

In another series the target is Cytochrome P450 2C19 (Homo sapiens, UniProt P33261). The experiment in a line: Activity of human recombinant CYP2C19 assessed as enzyme-mediated drug metabolism treated with 25 uM vorapaxar after 120 mins by LC-MS/MS analysis in presence of NADPH. The conditions noted are these: 2 h.
Cytochrome P450 2C19, sequence (P33261 whole entry): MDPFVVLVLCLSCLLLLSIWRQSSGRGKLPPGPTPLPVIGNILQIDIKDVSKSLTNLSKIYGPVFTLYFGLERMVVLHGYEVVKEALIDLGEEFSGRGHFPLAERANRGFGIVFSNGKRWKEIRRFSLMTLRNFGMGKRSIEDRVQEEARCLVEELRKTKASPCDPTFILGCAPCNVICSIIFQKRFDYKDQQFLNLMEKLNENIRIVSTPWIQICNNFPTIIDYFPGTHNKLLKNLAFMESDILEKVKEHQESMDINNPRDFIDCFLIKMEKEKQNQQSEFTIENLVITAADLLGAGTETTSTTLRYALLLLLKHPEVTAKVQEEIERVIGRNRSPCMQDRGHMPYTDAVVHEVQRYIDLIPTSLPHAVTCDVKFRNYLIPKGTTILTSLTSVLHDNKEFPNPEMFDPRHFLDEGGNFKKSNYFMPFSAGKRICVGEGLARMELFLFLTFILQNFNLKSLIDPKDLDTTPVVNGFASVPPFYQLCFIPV
Series [2] in a line: Drug level in human intestine microsomes treated with 25 uM vorapaxar after 120 mins by LC-MS/MS analysis in presence of NADPH. The conditions noted are these: 2 h.
In the next series the target is Cytochrome P450 2C8 (Homo sapiens, UniProt P10632). The series can be described thus: Activity of human recombinant CYP2C8 assessed as enzyme-mediated drug metabolism treated with 25 uM vorapaxar after 120 mins by LC-MS/MS analysis in presence of NADPH. The conditions noted are these: 2 h.
Cytochrome P450 2C8, sequence (P10632 whole entry): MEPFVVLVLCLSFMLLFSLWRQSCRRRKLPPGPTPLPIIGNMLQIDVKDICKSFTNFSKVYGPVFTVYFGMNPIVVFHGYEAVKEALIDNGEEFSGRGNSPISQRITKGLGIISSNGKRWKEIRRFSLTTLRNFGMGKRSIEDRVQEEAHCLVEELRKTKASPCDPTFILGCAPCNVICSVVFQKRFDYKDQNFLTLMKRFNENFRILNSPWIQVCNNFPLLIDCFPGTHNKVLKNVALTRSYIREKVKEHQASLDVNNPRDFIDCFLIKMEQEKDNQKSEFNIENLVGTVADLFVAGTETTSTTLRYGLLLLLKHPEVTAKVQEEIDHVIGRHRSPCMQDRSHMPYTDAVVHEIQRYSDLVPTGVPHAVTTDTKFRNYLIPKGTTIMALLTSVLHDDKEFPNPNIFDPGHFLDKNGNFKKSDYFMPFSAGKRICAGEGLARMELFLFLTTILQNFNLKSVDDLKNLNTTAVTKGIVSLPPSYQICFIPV
For a further series, the target named is Cytochrome P450 2C9 (Homo sapiens, UniProt P11712). The experiment in a line: Activity of human recombinant CYP2C9 assessed as enzyme-mediated 2-hydroxyethyl (1R,3aR,4aR,6R,8aR,9S,9aS)-9-((E)-2-(5-(3-fluorophenyl)pyridin-2-yl)vinyl)-1-methyl-3-oxododecahydronaphtho[2,3-c]furan-6-ylcarbamate formation at 25 uM after 120 mins by LC-MS/MS analysis in presence of NADPH. Particulars: 2 h.
Cytochrome P450 2C9, sequence (P11712 whole entry): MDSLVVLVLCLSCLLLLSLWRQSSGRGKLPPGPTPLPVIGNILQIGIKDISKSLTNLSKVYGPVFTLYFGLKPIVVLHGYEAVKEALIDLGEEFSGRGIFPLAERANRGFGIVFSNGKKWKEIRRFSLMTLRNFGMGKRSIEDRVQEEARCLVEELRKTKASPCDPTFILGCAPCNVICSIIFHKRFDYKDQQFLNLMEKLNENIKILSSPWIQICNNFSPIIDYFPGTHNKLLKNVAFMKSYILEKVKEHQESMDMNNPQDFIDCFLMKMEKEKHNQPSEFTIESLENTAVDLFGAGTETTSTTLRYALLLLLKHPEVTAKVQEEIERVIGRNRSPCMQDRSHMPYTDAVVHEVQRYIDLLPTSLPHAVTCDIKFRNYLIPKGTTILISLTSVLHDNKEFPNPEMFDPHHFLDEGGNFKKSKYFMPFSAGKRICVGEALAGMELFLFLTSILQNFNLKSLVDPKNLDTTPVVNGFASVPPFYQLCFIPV

A further series has as its target Cytochrome P450 3A4 (Homo sapiens, UniProt P08684). The series can be described thus: Activity of human recombinant CYP3A4 assessed as enzyme-mediated 2-hydroxyethyl (1R,3aR,4aR,6R,8aR,9S,9aS)-9-((E)-2-(5-(3-fluorophenyl)pyridin-2-yl)vinyl)-1-methyl-3-oxododecahydronaphtho[2,3-c]furan-6-ylcarbamate formation at 25 uM after 120 mins by LC-MS/MS analysis in presence of NADPH. Particulars: 2 h.

In series [3] the target is T3, Cytochrome P450 1A2 (Homo sapiens, UniProt P05177).
T3 sequence (P05177 whole entry): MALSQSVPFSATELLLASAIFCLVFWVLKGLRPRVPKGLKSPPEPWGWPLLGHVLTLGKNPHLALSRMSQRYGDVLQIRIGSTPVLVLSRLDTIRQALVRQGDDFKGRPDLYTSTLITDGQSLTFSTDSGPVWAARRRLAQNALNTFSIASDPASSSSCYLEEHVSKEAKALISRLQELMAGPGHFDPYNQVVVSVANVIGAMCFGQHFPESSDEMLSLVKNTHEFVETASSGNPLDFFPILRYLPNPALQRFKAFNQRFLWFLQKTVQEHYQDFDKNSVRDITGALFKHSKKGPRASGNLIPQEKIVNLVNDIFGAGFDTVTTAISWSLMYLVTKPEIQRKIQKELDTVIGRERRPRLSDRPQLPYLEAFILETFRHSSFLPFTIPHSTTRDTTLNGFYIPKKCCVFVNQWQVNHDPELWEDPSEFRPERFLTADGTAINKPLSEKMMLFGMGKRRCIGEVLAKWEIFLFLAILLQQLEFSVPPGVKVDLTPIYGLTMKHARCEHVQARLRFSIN
The series can be described thus: Activity of human recombinant CYP1A2 assessed as enzyme-mediated drug metabolism at 10 uM after 120 mins by LC-MS/MS analysis. The conditions noted are these: 2 h.

Series [4] concerns Liver microsome. The series can be described thus: Drug metabolism in human liver microsomes assessed as (3R,3aS,4S,4aR,7R,8aR,9aR)-7-amino-4-((E)-2-(5-(3-fluorophenyl)pyridin-2-yl)vinyl)-3-methyldecahydronaphtho[2,3-c]furan-1(3H)-one formation at 10 uM after 120 mins by LC-MS/MS analysis. The conditions noted are these: 2 h.
Series [5] concerns the target T3, Cytochrome P450 1A2. The experiment in a line: Activity of human recombinant CYP1A2 assessed as enzyme-mediated (3R,3aS,4S,4aR,7R,8aR,9aR)-7-amino-4-((E)-2-(5-(3-fluorophenyl)pyridin-2-yl)vinyl)-3-methyldecahydronaphtho[2,3-c]furan-1(3H)-one formation at 25 uM after 120 mins by LC-MS/MS analysis in presence of NADPH. The conditions noted are these: 2 h.
Series [6] concerns the target T1, Cytochrome P450 1B1. The series can be described thus: Activity of human recombinant CYP1B1 assessed as enzyme-mediated 2-hydroxyethyl (1R,3aR,4aR,6R,8aR,9S,9aS)-9-((E)-2-(5-(3-fluorophenyl)pyridin-2-yl)vinyl)-1-methyl-3-oxododecahydronaphtho[2,3-c]furan-6-ylcarbamate formation at 25 uM after 120 mins by LC-MS/MS analysis in presence of NADPH. Particulars: 2 h.

Series [7] has as its system Liver microsome. The experiment in a line: Drug metabolism in human liver microsomes assessed as 2-hydroxyethyl (1R,3aR,4aR,6R,8aR,9S,9aS)-9-((E)-2-(5-(3-fluorophenyl)pyridin-2-yl)vinyl)-1-methyl-3-oxododecahydronaphtho[2,3-c]furan-6-ylcarbamate formation at 25 uM after 120 mins by LC-MS/MS analysis in presence of NADPH. Particulars: 2 h. (Liver microsomes are a subcellular fraction often used to study metabolism.)

A further series deals with CYP1A2 (Homo sapiens, UniProt P05177). The series can be described thus: Activity of human recombinant CYP1A2 assessed as enzyme-mediated drug metabolism at 10 uM after 120 mins by LC-MS/MS analysis in presence of NADPH. The conditions noted are these: read-out: Compound recovery.
Series [8] can be described thus: Drug metabolism in human liver microsomes assessed as compound remaining at 10 uM after 120 mins by LC-MS/MS analysis in presence of NADPH. Particulars: read-out: Compound recovery.
Series [9] relates to Liver microsome. The experiment in a line: Drug metabolism in human liver microsomes assessed as (3R,3aS,4S,4aR,7R,8aR,9aR)-7-amino-4-((E)-2-(5-(3-fluorophenyl)pyridin-2-yl)vinyl)-3-methyldecahydronaphtho[2,3-c]furan-1(3H)-one formation at 10 to 25 uM after 120 mins by LC-MS/MS analysis in presence of omeprazole. Particulars: 2 h.

Cytochrome P450 3A4, sequence (P08684 whole entry): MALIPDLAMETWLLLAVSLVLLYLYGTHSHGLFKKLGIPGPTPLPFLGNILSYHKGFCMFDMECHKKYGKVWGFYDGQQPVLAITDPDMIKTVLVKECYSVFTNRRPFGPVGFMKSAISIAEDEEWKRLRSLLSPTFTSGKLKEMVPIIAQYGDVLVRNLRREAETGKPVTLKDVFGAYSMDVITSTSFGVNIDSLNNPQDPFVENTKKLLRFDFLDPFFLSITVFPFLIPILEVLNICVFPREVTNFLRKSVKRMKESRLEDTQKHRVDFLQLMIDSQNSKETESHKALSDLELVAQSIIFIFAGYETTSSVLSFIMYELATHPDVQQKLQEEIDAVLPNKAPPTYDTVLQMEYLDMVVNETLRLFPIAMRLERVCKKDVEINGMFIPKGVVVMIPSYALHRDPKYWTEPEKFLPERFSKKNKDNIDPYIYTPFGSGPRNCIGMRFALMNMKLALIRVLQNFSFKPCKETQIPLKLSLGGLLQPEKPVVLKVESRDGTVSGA

For `C[C@H]1OC(=O)[C@@H]2C[C@@H]3C[C@H](NC(=O)OCCO)CC[C@H]3[C@H](/C=C/c3ccc(-c4cccc(F)c4)cn3)[C@H]12`, the Drug metabolism entry (on Cytochrome P450 1B1 [1]; on Cytochrome P450 4F3; at Cytochrome P450 2C19; in series [2]; on Cytochrome P450 2C8) was “metabolite_detected” throughout.
Regarding `CCOC(=O)N[C@@H]1CC[C@@H]2[C@@H](C1)C[C@H]1C(=O)O[C@H](C)[C@H]1[C@H]2/C=[14CH]/c1ccc(-c2cccc(F)c2)cn1`, the Drug metabolism entry is “metabolite_detected” at Cytochrome P450 2C9; “metabolite_detected” on Cytochrome P450 3A4; “metabolite_not_detected” on Cytochrome P450 1A2 [3]; “metabolite_not_detected” in the series with Liver microsome [4]; “metabolite_detected” on Cytochrome P450 1A2 [5]; “metabolite_detected” at Cytochrome P450 1B1 [6].
On to `CCOC(=O)N[C@@H]1CC[C@@H]2[C@@H](C1)C[C@H]1C(=O)O[C@H](C)[C@H]1[C@H]2/C=C/c1ccc(-c2cccc(F)c2)cn1` [VORAPAXAR], for which the maximal velocity (Vmax) with Liver microsome [7] is reported as 0.4 pmol/min. Further, the remaining at 2 h, 10 µM at CYP1A2 was 98.3%; in series [8], 92.7%. Moreover, the Drug metabolism result with Liver microsome [9] was “metabolite_detected”.
